Where two headings read alike, the source gives them in different places.
Legend:
CLK3 = CLK3 (Homo sapiens, UniProt P49761); experiment: CLK3 kinase activity assay (Z-lyte, Ser/Thr 18 peptide)
Protocol: Each compound was dissolved in DMSO as a 10 mM stock and used to prepare compound source plates.
This is a non-radioactive assay using fluorescence resonance energy transfer (FRET) between coumarin and fluorescein to detect kinase activity which is represented as a ratio of coumarin emission/fluorescein emission.
All reactions were performed in duplicate. Unphosphorylated (“0% Control”) and phosphorylated (“100% control”) forms of Ser/Thr 18 served as control reactions. Additionally, an 11-point dose-response curve of Staurosporine (1 uM top) was run to serve as a positive compound control.
After incubation, Development Reagent A was diluted in Development Buffer then added to the reaction and allowed to further incubate for one hour at room temperature.
Dose-response curves were generated and inhibitory concentration (IC50) values were calculated using non-linear regression curve fit in the Dotmatics' Studies Software (Bishops Stortford, UK).
Compounds were acoustically transferred on 1536-well plates (Echo 550, LabCyte) instrument. Kinase, peptide, and ATP reagents from the Z′-LYTE Kinase Assay Kits (Thermo Fisher) were dispensed onto the compound plates using an EL406 liquid dispenser (BioTek). Plates were incubated in the dark at room temperature for 1 hr. Development reagent was added to the plates and then incubated in the dark at room temperature for 1 hr. Fluorescence signal form the plate was then read using an EnVision Multilabel Plate Reader (Perkin Elmer).

[1] = tested on: liver cancer (3 cell lines); experiment: CellTiter-Glo Viability Assay, liver cancer; assay type: cell-based; conditions: Homo sapiens, inhibition of cancer cell proliferation
[2] = tested on: ovarian cancer (4 cell lines); experiment: CellTiter-Glo Viability Assay, ovarian cancer; assay type: cell-based; conditions: Homo sapiens, inhibition of cancer cell proliferation
[3] = tested on: prostate cancer (5 cell lines); experiment: CellTiter-Glo Viability Assay, prostate cancer; assay type: cell-based; conditions: Homo sapiens
[4] = tested on: haematopoietic & lymphoid tumors (13 cell lines); experiment: CellTiter-Glo Viability Assay, haematopoietic & lymphoid tumors; assay type: cell-based; conditions: Homo sapiens, inhibition of cancer cell proliferation
all 50 cell lines = experiment: CellTiter-Glo Viability Assay, average across all cell lines; assay type: cell-based; conditions: Homo sapiens; across all 50 cell lines; read-out: average EC50 for inhibition of cancer cell proliferation
Summary of the method: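 Human cancer cell lines from breast, colorectal, haematopoietic/lymphoid, liver, lung, ovarian, pancreatic and prostate tumours were seeded at 300-3,000 cells/well and exposed to compound in duplicate for four days at 37° C, 5% CO2. Viable cells were measured by ATP luminescence; EC50 values came from dose-response curves.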

[5] = tested on: lung cancer (4 cell lines); experiment: CellTiter-Glo Viability Assay, lung cancer; assay type: cell-based; conditions: Homo sapiens, inhibition of cancer cell proliferation
[6] = tested on: pancreatic cancer (8 cell lines); experiment: CellTiter-Glo Viability Assay, pancreatic cancer; assay type: cell-based; conditions: Homo sapiens, inhibition of cancer cell proliferation
[7] = tested on: colorectal cancer (6 cell lines); experiment: CellTiter-Glo Viability Assay, colorectal cancer; assay type: cell-based; conditions: Homo sapiens, inhibition of cancer cell proliferation
MDA-MB-231-Luc = experiment: CellTiter-Glo Viability Assay, breast cancer; assay type: cell-based; conditions: Homo sapiens, 96 h; MDA-MB-231-Luc, breast cancer, four days; read-out: EC50
HCC1599 = experiment: CellTiter-Glo Viability Assay, breast cancer; assay type: cell-based; conditions: Homo sapiens, 96 h; HCC1599, breast cancer, four days; read-out: EC50
T47D = experiment: CellTiter-Glo Viability Assay, breast cancer; assay type: cell-based; conditions: Homo sapiens, 96 h, breast cancer, four days, read-out: EC50
DU4475 = experiment: CellTiter-Glo Viability Assay, breast cancer; assay type: cell-based; conditions: Homo sapiens, DU-4475, 96 h; DU4475, breast cancer, four days; read-out: EC50
BT-549 = experiment: CellTiter-Glo Viability Assay, breast cancer; assay type: cell-based; conditions: Homo sapiens, 96 h; BT-549, breast cancer, four days; read-out: EC50
CAMA1 = experiment: CellTiter-Glo Viability Assay, breast cancer; assay type: cell-based; conditions: Homo sapiens, CAMA-1, 96 h; CAMA1, breast cancer, four days; read-out: EC50
ZR-75-1 = experiment: CellTiter-Glo Viability Assay, breast cancer; assay type: cell-based; conditions: Homo sapiens, 96 h; ZR-75-1, breast cancer, four days; read-out: EC50
MCF7 = experiment: CellTiter-Glo Viability Assay, breast cancer; assay type: cell-based; conditions: Homo sapiens, 96 h; MCF7, breast cancer, four days; read-out: EC50

Chain of CLK3 (P49761 whole entry): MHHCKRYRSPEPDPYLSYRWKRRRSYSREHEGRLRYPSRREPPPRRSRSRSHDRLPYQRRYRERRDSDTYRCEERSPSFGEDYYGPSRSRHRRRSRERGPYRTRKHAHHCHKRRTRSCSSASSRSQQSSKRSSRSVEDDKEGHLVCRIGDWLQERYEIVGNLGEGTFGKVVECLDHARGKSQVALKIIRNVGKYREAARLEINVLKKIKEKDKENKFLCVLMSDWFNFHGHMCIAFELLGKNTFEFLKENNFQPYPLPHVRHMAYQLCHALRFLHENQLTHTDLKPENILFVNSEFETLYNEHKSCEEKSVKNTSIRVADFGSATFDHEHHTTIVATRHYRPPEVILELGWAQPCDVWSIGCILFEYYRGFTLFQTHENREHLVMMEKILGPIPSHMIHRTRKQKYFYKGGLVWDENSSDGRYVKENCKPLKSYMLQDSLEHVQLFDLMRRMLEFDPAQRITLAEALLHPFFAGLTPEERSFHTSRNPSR

EC50 (CLK3): 61.1 nM
EC50 ([1]; SNU-398, SNU398 cell line, read-out: Liver cancer, EC50 SNU398): 161 nM
EC50 ([1]; HEPG2 cell line, read-out: Liver cancer, EC50 HEPG2): 428 nM
EC50 ([1]; PLC/PRF/5 cell line, read-out: Liver cancer, EC50 PLC/PRF/5): 1030 nM
EC50 ([2]; PA-1, PA1 cell line, read-out: Ovarian cancer, EC50 (μM) PA1): 0.27 µM
EC50 ([2]; TOV112D, TOV-112D cell line, read-out: Ovarian cancer, EC50 (μM) TOV-112D): 0.264 µM
EC50 ([2]; OV-90 cell line, read-out: Ovarian cancer, EC50 (μM) OV-90): 0.936 µM
EC50 ([2]; OVCAR-3 cell line, read-out: Ovarian cancer, EC50 (μM) OVCAR-3): 0.1 µM
EC50 ([3]; DU-145, read-out: Prostate cancer EC50 Du-145): 563 nM
EC50 ([3]; PC-3, PC3 cell line, inhibition of cancer cell proliferation, read-out: Prostate cancer EC50 PC3): 394 nM
EC50 ([3]; 22Rv1 cell line, inhibition of cancer cell proliferation, read-out: Prostate cancer EC50 22Rv1): 253 nM
EC50 ([3]; LNCap clone FGC cell line, inhibition of cancer cell proliferation, read-out: Prostate cancer EC50 LNCap clone FGC): 553 nM
EC50 ([3]; VCaP (Sigma) cell line, inhibition of cancer cell proliferation, read-out: Prostate cancer EC50 VCaP (Sigma)): 612 nM
EC50 ([4]; DND41, DND-41 cell line, read-out: Haematopoietic & Lymphoid tumors, EC50 (μM) DND-41): 0.529 µM
EC50 ([4]; MV4-11, MV-4-11 cell line, read-out: Haematopoietic & Lymphoid tumors, EC50 (μM) MV-4-11): 0.077 µM
EC50 ([4]; Rec1, REC-1 cell line, read-out: Haematopoietic & Lymphoid tumors, EC50 (μM) REC-1): 0.133 µM
EC50 ([4]; SU-DHL-4, SUDHL4 cell line, read-out: Haematopoietic & Lymphoid tumors, EC50 (μM) SUDHL4): 0.525 µM
EC50 ([4]; HL-60 cell line, read-out: Haematopoietic & Lymphoid tumors, EC50 (μM) HL-60): 1.24 µM
EC50 ([4]; JM1 cell line, read-out: Haematopoietic & Lymphoid tumors, EC50 (μM) JM1): 0.115 µM
EC50 ([4]; JURKAT, Clone E6-1 cell line, read-out: Haematopoietic & Lymphoid tumors, EC50 (μM) JURKAT, Clone E6-1): 1.02 µM
EC50 ([4]; JeKo-1 cell line, read-out: Haematopoietic & Lymphoid tumors, EC50 (μM) JeKo-1): 0.141 µM
EC50 ([4]; KASUMI-1 cell line, read-out: Haematopoietic & Lymphoid tumors, EC50 (μM) KASUMI-1): 0.157 µM
EC50 ([4]; Loucy cell line, read-out: Haematopoietic & Lymphoid tumors, EC50 (μM) Loucy): 0.304 µM
EC50 ([4]; MOLT-4 cell line, read-out: Haematopoietic & Lymphoid tumors, EC50 (μM) MOLT-4): 0.689 µM
EC50 ([4]; TF-1 cell line, read-out: Haematopoietic & Lymphoid tumors, EC50 (μM) TF-1): 0.41 µM
EC50 ([4]; TOLEDO cell line, read-out: Haematopoietic & Lymphoid tumors, EC50 (μM) TOLEDO): 0.121 µM
EC50 ([5]; A-427, A427 cell line, read-out: Lung cancer, EC50 (μM) A427): 0.443 µM
EC50 ([5]; HCC78, HCC-78 cell line, read-out: Lung cancer, EC50 (μM) HCC-78): 0.997 µM
EC50 ([5]; NCI-H460 cell line, read-out: Lung cancer, EC50 (μM) NCI-H460): 0.32 µM
EC50 ([5]; NCI-H522 cell line, read-out: Lung cancer, EC50 (μM) NCI-H522): 0.19 µM
EC50 ([6]; BXPC-3, BxPC3 cell line, read-out: Pancreatic cancer, EC50 BxPC3): 1050 nM
EC50 ([6]; CAPAN-1, Capan1 cell line, read-out: Pancreatic cancer, EC50 Capan1): 228 nM
EC50 ([6]; Capan-2, Capan2 cell line, read-out: Pancreatic cancer, EC50 Capan2): 55 nM
EC50 ([6]; MIA PaCa-2 cell line, read-out: Pancreatic cancer, EC50 MIA PaCa-2): 175 nM
EC50 ([6]; PANC 05.04 cell line, read-out: Pancreatic cancer, EC50 PANC 05.04): 226 nM
EC50 ([6]; PANC-1 cell line, read-out: Pancreatic cancer, EC50 PANC-1): 666 nM
EC50 ([6]; UPAFII cell line, read-out: Pancreatic cancer, EC50 UPAFII): 282 nM
EC50 ([7]; HCT-116, HCT116 cell line, read-out: Colorectal cancer, EC50 (μM) HCT116): 0.193 µM
EC50 ([7]; HT-29, HT29 cell line, read-out: Colorectal cancer, EC50 (μM) HT29): 0.666 µM
EC50 ([7]; SW-620, SW620 cell line, read-out: Colorectal cancer, EC50 (μM) SW620): 0.187 µM
EC50 ([7]; DLD-1 cell line, read-out: Colorectal cancer, EC50 (μM) DLD-1): 0.376 µM
EC50 ([7]; SW48 cell line, read-out: Colorectal cancer, EC50 (μM) SW48): 0.132 µM
EC50 ([7]; SW480 cell line, read-out: Colorectal cancer, EC50 (μM) SW480): 0.353 µM
EC50 (MDA-MB-231-Luc): 636 nM
EC50 (HCC1599): 286 nM
EC50 (T47D): 730 nM
EC50 (DU4475): 178 nM
EC50 (BT-549): 473 nM
EC50 (CAMA1): 345 nM
EC50 (ZR-75-1): 653 nM
EC50 (MCF7): 853 nM
Compound: COc1ccc(NC(=O)c2n[nH]c3ccc(-c4cncc(CN5CCCCC5)c4)cc23)cn1 [Compound 59]
EC50 (all 50 cell lines): 434 nM
